From ChEMBL document CHEMBL1122903, “Synthesis, in vitro [3H]prazosin displacement, and in vivo activity of 3-aryl-4,5,6,7-tetrahydropyrazolo[4,3-c]pyridines, a new class of antihypertensive agents” (J Med Chem, 1985)

Columns and labels:
[1] = system: Rattus norvegicus; assay: Antihypertensive activity on spontaneously hypertensive rats when administered orally at a dose 50 mg/kg.; assay type: functional; conditions: route oral
[2] = molecular target: T1, Adrenergic receptor alpha-1 (Rattus norvegicus, UniProt P15823+P23944+P43140); assay: Ability to displace [3H]prazosin from postsynaptic alpha-1 adrenergic receptor of rat in vitro.; assay type: protein assay
T1 sequence (P15823 whole entry): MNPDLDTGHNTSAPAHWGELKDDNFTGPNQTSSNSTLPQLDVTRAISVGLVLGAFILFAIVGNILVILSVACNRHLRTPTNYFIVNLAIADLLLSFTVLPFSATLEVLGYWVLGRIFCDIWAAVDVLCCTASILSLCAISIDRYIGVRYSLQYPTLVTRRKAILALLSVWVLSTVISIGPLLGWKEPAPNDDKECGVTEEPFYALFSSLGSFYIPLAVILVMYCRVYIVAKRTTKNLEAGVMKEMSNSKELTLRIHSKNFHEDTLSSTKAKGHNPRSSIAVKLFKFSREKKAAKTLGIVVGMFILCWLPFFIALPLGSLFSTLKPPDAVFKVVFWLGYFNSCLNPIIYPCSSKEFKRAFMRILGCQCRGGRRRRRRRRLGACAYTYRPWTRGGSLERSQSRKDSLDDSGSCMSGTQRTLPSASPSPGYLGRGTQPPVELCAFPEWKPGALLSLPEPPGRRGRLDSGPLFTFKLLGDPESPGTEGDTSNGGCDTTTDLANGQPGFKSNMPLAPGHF
T1 sequence (P23944 whole entry): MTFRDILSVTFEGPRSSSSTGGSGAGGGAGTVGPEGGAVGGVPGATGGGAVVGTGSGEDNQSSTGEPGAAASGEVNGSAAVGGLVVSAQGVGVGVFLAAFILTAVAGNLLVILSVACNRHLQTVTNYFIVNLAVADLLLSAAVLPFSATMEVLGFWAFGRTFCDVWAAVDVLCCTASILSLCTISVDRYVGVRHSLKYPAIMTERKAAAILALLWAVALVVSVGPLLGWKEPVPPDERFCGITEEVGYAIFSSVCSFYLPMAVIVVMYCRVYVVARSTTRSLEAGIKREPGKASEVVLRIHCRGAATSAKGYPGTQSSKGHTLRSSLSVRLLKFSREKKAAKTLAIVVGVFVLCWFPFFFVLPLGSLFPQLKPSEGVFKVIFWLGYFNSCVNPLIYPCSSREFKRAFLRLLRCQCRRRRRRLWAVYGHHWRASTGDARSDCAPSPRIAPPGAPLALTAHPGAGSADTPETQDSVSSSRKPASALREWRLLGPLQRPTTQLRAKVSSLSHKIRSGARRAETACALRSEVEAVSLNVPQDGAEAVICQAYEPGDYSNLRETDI
T1 sequence (P43140 whole entry): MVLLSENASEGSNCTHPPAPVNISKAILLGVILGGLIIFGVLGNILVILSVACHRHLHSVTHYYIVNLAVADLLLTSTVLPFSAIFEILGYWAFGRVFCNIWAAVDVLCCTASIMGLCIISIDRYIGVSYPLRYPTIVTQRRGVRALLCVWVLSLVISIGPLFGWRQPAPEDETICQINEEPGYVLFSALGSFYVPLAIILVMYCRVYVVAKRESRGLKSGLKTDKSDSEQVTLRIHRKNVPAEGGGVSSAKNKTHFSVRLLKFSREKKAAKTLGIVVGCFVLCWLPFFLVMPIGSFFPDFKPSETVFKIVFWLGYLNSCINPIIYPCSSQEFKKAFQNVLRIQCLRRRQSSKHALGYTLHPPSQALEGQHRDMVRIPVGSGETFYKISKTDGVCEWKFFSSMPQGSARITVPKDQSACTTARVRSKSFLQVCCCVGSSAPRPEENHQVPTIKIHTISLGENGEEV

[3] = system: Rattus norvegicus; assay: Antihypertensive activity on spontaneously hypertensive rats, when administered intravenously at a dose 10 mg/kg; assay type: functional; conditions: route intravenous
[4] = system: Rattus norvegicus; assay: Antihypertensive activity on spontaneously hypertensive rats, when administered orally at a dose 20 mg/kg; assay type: functional; conditions: route oral

| Ki [2] [nM] | Structure (SMILES) | Delta p [1] [%] | Delta p [3] [%] | Delta p [4] [%] |
| --- | --- | --- | --- | --- |
| > 3000 | Fc1ccccc1-c1[nH]nc2c1CNCC2 | 0 | – | – |
| 40.3 | CN1CCc2c(c(-c3ccc(F)cc3)nn2CCc2ccccc2)C1 | 0 | – | – |
| 24.2 | CCCn1nc(-c2ccc(F)cc2)c2c1CCNC2.CS(=O)(=O)O | -33 | – | – |
| 1300 | CN1CCc2n[nH]c(-c3ccccc3)c2C1.O=C(O)CC(O)(CC(=O)O)C(=O)O | 0 | – | – |
| 12.9 | CS(=O)(=O)O.Fc1ccc(-c2nn(CCCc3ccccc3)c3c2CNCC3)cc1 | – | -37 | – |
| 8.7 | CCCCCn1nc(-c2ccc(F)cc2)c2c1CCNC2.CS(=O)(=O)O | – | – | -20 |
| 32.5 | CCn1nc(-c2ccc(F)cc2)c2c1CCNC2.CS(=O)(=O)O | – | – | -37 |
| 97.6 | CC(C)N1CCc2c(c(-c3ccc(F)cc3)nn2Cc2ccccc2)C1 | -20 | – | – |
| 3400 | CCN1CCc2n[nH]c(-c3ccc(F)cc3)c2C1.O=C(O)CC(=O)O | 0 | – | – |
| 507 | CN1CCc2n[nH]c(-c3ccc(F)cc3)c2C1 | – | – | 0 |
| 490 | Cl.Cl.c1ccc(-c2[nH]nc3c2CNCC3)cc1 | -18 | – | – |
| 69.2 | Fc1ccc(-c2[nH]nc3c2CNCC3)cc1 | -37 | – | – |
| 3290 | CS(=O)(=O)O.Cn1nc(-c2ccccc2)c2c1CCNC2 | 0 | – | – |
| 21.2 | CN1CCc2c(c(-c3ccc(F)cc3)nn2Cc2ccccc2)C1.CS(=O)(=O)O | -18 | – | – |
| > 3000 | Cc1ccc(S(=O)(=O)O)cc1.Cn1nc(-c2ccccc2F)c2c1CCNC2 | 0 | – | – |
| 13 | CCCCCCn1nc(-c2ccc(F)cc2)c2c1CCNC2.CS(=O)(=O)O | 0 | – | – |
| 119 | CCCCN1CCc2c(c(-c3ccc(F)cc3)nn2Cc2ccccc2)C1.Cl | -16 | – | – |
| 1500 | CCN1CCc2n[nH]c(-c3ccccc3)c2C1.Cl | 0 | – | – |
| 161 | Cl.Fc1ccc(-c2nn(-c3ccc(F)cc3)c3c2CNCC3)cc1 | – | – | 0 |

More lines, now with the values behind:

| Structure (SMILES) | Ki [2] [nM] | Delta p [1] [%] | Delta p [3] [%] | Delta p [4] [%] |
| --- | --- | --- | --- | --- |
| CCCCCCn1nc(-c2ccc(F)cc2)c2c1CCN(C)C2.CS(=O)(=O)O | 15.2 | -16 | – | – |
| CCN1CCc2n[nH]c(-c3ccc(OC)cc3)c2C1 | > 3000 | 0 | – | – |
| CCN1CCc2n[nH]c(-c3ccc(C)cc3)c2C1.O=C(O)CC(=O)O | 350 | 0 | – | – |
| Clc1cccc(-c2[nH]nc3c2CNCC3)c1 | > 3000 | 0 | – | – |
| CC(c1ccccc1)n1nc(-c2ccc(F)cc2)c2c1CCNC2.CS(=O)(=O)O (stereo unspecified) | 7.2 | – | – | -15 |
| CN1CCc2c(c(-c3ccc(F)cc3)nn2-c2ccc(F)cc2)C1.CS(=O)(=O)O | 206 | – | – | 0 |
| CC(C)n1nc(-c2ccccc2)c2c1CCNC2 | 1100 | 0 | – | – |
| COc1ccc(-c2[nH]nc3c2CNCC3)cc1OC | > 3000 | 0 | – | – |
| Fc1cccc(-c2[nH]nc3c2CNCC3)c1 | > 3000 | 0 | – | – |
| CCn1nc(-c2ccc(F)cc2)c2c1CCN(Cc1ccccc1)C2.CS(=O)(=O)O | 2020 | -23 | – | – |
| Cn1nc(-c2ccc(F)cc2)c2c1CCNC2 | 1060 | 0 | – | – |
| COc1ccc(-c2[nH]nc3c2CNCC3)cc1 | 448 | -15 | – | – |
| N#Cc1ccc(-c2[nH]nc3c2CNCC3)cc1 | > 3000 | 0 | – | – |
| CCCCn1nc(-c2ccc(F)cc2)c2c1CCNC2.CS(=O)(=O)O | 17.3 | – | -30 | – |
| CS(=O)(=O)O.Fc1ccc(-c2nn(CCc3ccccc3)c3c2CNCC3)cc1 | 40.3 | -15 | – | – |
| Cc1ccc(-c2[nH]nc3c2CN(C)CC3)cc1.Cc1ccc(S(=O)(=O)O)cc1 | 249 | – | – | 0 |
| CN1CCc2n[nH]c(-c3ccc(Cl)cc3)c2C1.O=C(O)CC(O)(CC(=O)O)C(=O)O | 2000 | 0 | – | – |
| Cc1ccc(-c2[nH]nc3c2CNCC3)cc1.Cl.Cl | 92.2 | – | – | 0 |
| CCCCn1nc(-c2ccc(F)cc2)c2c1CCN(C)C2.CS(=O)(=O)O | 32.8 | -18 | – | – |
| CCCn1nc(-c2ccc(F)cc2)c2c1CCN(C)C2.CS(=O)(=O)O | 73.5 | -25 | – | – |
| Cn1nc(-c2cccc(Cl)c2)c2c1CCNC2 | > 3000 | 0 | – | – |
| CC(C)n1nc(-c2ccccc2)c2c1CCN(C)C2.CS(=O)(=O)O | 2870 | 0 | – | – |
| Cn1nc(-c2cccc(F)c2)c2c1CCNC2 | > 3000 | 0 | – | – |
| CCCCCn1nc(-c2ccc(F)cc2)c2c1CCN(C)C2.CS(=O)(=O)O | 18.3 | – | – | -21 |
| Cl.Fc1ccc(-c2nn(Cc3ccccc3)c3c2CN(C2CCCC2)CC3)cc1 | 42.4 | -18 | – | – |
| CN1CCc2c(c(-c3ccc(F)cc3)nn2CCCc2ccccc2)C1.Cl | 20.6 | 0 | – | – |
| Cl.Cn1nc(-c2ccc(Cl)cc2)c2c1CCNC2 | 190 | -26 | – | – |
| Cl.O=[N+]([O-])c1ccc(-c2[nH]nc3c2CNCC3)cc1 | > 3000 | 0 | – | – |
| CC(c1ccccc1)n1nc(-c2ccc(F)cc2)c2c1CCN(C)C2.Cl (stereo unspecified) | 8.1 | – | – | -15 |
